Consider two molecules from US20080145431A1, “Medicinal Composition and Process for Producing the Same” (priority 2005, published 2008).

Broadly, the solubility is how much of the substance goes into solution per volume. A low value points to little dissolved substance.

For data set [1] the following is noted: cited from earlier work.
Data set [2] can be described thus: Saturation solubility in water. The format is physicochemical.

Read-outs that look alike come from different tables or passages of the source.

For the molecule `COc1ccc(Cl)cc1C(=O)NCCc1ccc(S(=O)(=O)NC(=O)NC2CCCCC2)cc1` [Glibenclamide], the “Saturation solubility in water” value is 5.9 µg/mL in data set [1] (22° C.) and 9.9 µg/mL in data set [1] (37° C.).
Take `NS(=O)(=O)c1ccc(S(=O)(=O)Nc2cccc3c(Cl)c[nH]c23)cc1` [Drug A, N-(3-chloro-7-indolyl)-1,4-benzenedisulfonamide]: the “Solubility in water under substantially physiological conditions” value in data set [2] (pH 5 to 7) is given as “practically insoluble”. In addition, the solubility in data set [2] (water, process liquid temperature of 17° C.) was at most 100 µg/mL.
